In US5658884A, “Establishment of tonic ovarian estrogen secretion for extended therapeutic regimens” (The Medical College of Hampton Roads, priority 1995, dated 1997):
“And” between values parts separate entries of the source, which are not always exact repeats. Equal entries are not always repeated.

How the values were obtained:
pituitary-ovarian axis = conditions: sufficient single dose, monkeys, follicular phase; cited from earlier work
[1] = tested on: adult female cynomolgus monkeys; test: Part I dose-finding study: residual serum estradiol (RIA) during 14 days of daily im GnRH antagonist; format: in vivo; conditions: 0.1 mg/kg im daily; individual monkeys for whom the dose was too much, predominately
Description: (§1) Eleven adult female cynomolgus monkeys having regular and presumably ovulatory menstrual cycles were entered into the study. Body weights were determined monthly. Menstrual bleeding and spotting were recorded daily by visual inspection of external genitalia and insertion of vaginal swabs using a saline moistened cotton-tipped applicator, respectively. Blood samples were collected from femoral vessels and the serum stored for subsequent RIA of estradiol and progesterone. Coefficients of variation for these assays were: 7.4 and 11.1; and 7.0 and 10.9%, respectively, for within and between assays. The GnRH antagonist (GnRHant) used was Nal-Glu: [Ac-D2NAL, 4ClDPhe^2, D3Pal^3, Arg^5, DGlu^6 (AA), DAla^10 ]-GnRH.
In Part I of the study, the object was to perform a brief dose-finding study that indicated residual serum estradiol levels in intact primates previously illustrating regular menstrual cycles. Specifically sought was an approximation of the minimal daily im dose of Nal-Glu sufficient to suppress circulating estradiol levels into the target range: less than 45 pg/ml but more than 35 pg/ml. Beginning on day 2 of the menstrual cycle, Nal-Glu GnRHant, suspended in sesame oil, was administered between 9 and 10 am in doses of 0.1 (n=5) and 0.3 mg/kg (n=6) for 14 days. Femoral blood was obtained daily under ketamine anesthesia. […]

[2] = tested on: adult female cynomolgus monkeys; test: Part II: titering the GnRHant dose to individual monkeys with periodic progesterone challenge tests (withdrawal bleeding versus amenorrhea, serum estradiol RIA); format: in vivo
Description: as §1
Concurrently, a pair of progesterone-loaded silastic implants were inserted sc during GnRHant treatment from day 20 and 30, and then removed. If withdrawal menses occurred during the next week, the individual Nal-Glu dose was raised to 0.1 mg/kg daily. […] Again, amenorrhea or withdrawal menses was recorded.
For definition, withdrawal bleeding was scored when blood was on the external genitalia for two or more consecutive days within the week following progesterone withdrawal. Spotting was scored when blood was evident only by coloration of the cotton swab upon insertion into the vagina.

Row | Substance | effect on the pituitary-ovarian axis (pituitary-ovarian axis) | serum estradiols of some primates [1] [pg/mL] | mean serum estradiol concentrations ([2]; 8 monkeys after increase of the dose to 0.1 mg/kg im daily) | Amenorrhea Achieved (Monkeys) ([2]; first progesterone challenge test, withdrawal week days 31-37, all 11 monkeys at 0.05 mg/kg im daily) | monkeys manifesting frank withdrawal menses ([2]; first progesterone challenge test, 0.05 mg/kg im daily) | serum estradiol ([2]; lone resistant monkey at 0.2 mg/kg im daily, ultimately) | Amenorrhea Achieved (Monkeys) ([2]; second progesterone challenge test, withdrawal week days 61-67, doses 0.05 or 0.1 mg/kg im daily) | withdrawal outcome of the two monkeys that remained on 0.05 mg/kg ([2]; second progesterone challenge test, 0.05 mg/kg im daily) | monkeys achieving withdrawal amenorrhea ([2]; second progesterone challenge test, the nine females raised to 0.1 mg/kg im daily on day 31) | mean serum estradiol levels ([2]; the two primates amenorrheic at 0.05 mg/kg im daily, target zone 35 to 45 pg/ml) | Amenorrhea Achieved (Monkeys) ([2]; third progesterone challenge test, withdrawal week days 91-97, doses 0.05, 0.1 or 0.2 mg/kg im daily) | Incidence of Spotting ([2]; week of progesterone withdrawal days 31-37, 0.05 mg/kg im daily) [days] | Incidence of Spotting ([2]; week of progesterone withdrawal days 61-67, 0.05 or 0.1 mg/kg im daily) [days] | Incidence of Spotting ([2]; week of progesterone withdrawal days 91-97, 0.05, 0.1 or 0.2 mg/kg im daily) [days]
1 | D-Ac-D-2-Nal^1 -DpClPhe^2 -D-3-Pal^3 -Ser^4 -NiLys^5 -D-NicLys^6 -Leu^7 -ILys^8 -Pro^9 -D-Ala^10 [antide] | immediate and sustained inhibition of the pituitary-ovarian axis | – | – | – | – | – | – | – | – | – | – | – | – | –
2 | [Ac-D2NAL, 4ClDPhe^2, D3Pal^3, Arg^5, DGlu^6 (AA), DAla^10 ]-GnRH [Nal-Glu] | – | < 25 | approximately 40 pg/ml | two and 2/11 | Nine | under 20 pg/ml | 10/11 | remained amenorrheic | 8 of 9 | hovered in or near the target zone | all eleven and 11/11 | 13 | 12 | 0
